The record followed here is EPA's ToxRefDB 2.

Data set [1] has as its system rat. To be noted: Chronic toxicity, sprague dawley, Oral, Feed, dose end: 24 month, group: systemic.
Data set [2] concerns mouse. The following applies: Chronic toxicity, other, Oral, Feed, dose end: 150 week, group: systemic.
For data set [3], the system named is rat. To be noted: Subchronic oral toxicity in rodents, Gavage/Intubation, dose end: 91 day.
The test system of data set [4] is rat. The following applies: Chronic toxicity; sprague dawley; Oral; Feed; dose end: 52 week; group: systemic; systemic / pathology microscopic / liver / hypertrophy + systemic / pathology microscopic / thyroid gland / colloid content + systemic / ….
Data set [5] has as its system dog. The following applies: Chronic toxicity, beagle, Oral, Feed, dose end: 12 month.
Data set [6] deals with rat. The following applies: Multigenerational reproductive toxicity study, sprague dawley, Oral, Feed, dose end: 3 generation.
In data set [7] the test system is mouse. The following applies: Subchronic oral toxicity in rodents, b6c3f1, Gavage/Intubation, dose end: 17 week, group: systemic.
Data set [8] concerns rat. The following applies: Subchronic oral toxicity in rodents, fischer, Gavage/Intubation, dose end: 17 week, group: systemic.
Data set [9] has as its system rat. To be noted: Multigenerational reproductive toxicity study, Oral, Gavage/Intubation, dose end: 2 generation.
Data set [10] relates to rat. To be noted: Multigenerational reproductive toxicity study, sprague dawley, Oral, Water, dose end: 3 generation.
The subject of data set [11] is rat. The following applies: Multigenerational reproductive toxicity study, Sprague Dawley, Oral, Gavage/Intubation, dose end: 2 generation.
Data set [12] relates to dog. The following applies: Chronic toxicity, beagle, Oral, Feed, dose end: 12 month, group: systemic.
The subject of data set [13] is rat. To be noted: Prenatal developmental toxicity study, sprague dawley, Inhalation, Whole-Body, dose end: 15 GD.
Data set [14] concerns rat. The following applies: Multigenerational reproductive toxicity study, sprague dawley, Inhalation, Whole-Body, dose end: 2 generation.
Where [15] appears, read: systemic / in life observation / body weight / body weight.
Where [16] appears, read: systemic / in life observation / body weight / body weight + systemic / organ weight / liver / absolute + systemic / organ weight / liver / ….
[17] abbreviates: group: maternal, reproductive / reproductive performance / estrous cycle / abnormal + reproductive / reproductive performance / estrous cycle / absent ….
The mark [18] stands for this setting: group: systemic, systemic / clinical chemistry / albumin / albumin + systemic / clinical chemistry / cholesterol / cholesterol + systemic / clinical ….
[19] abbreviates: group: systemic, systemic / clinical chemistry / sodium / sodium + systemic / pathology microscopic / mammary gland / hyperplastic alveolar nodule + systemic….
Where [20] appears, read: group: cholinesterase, cholinesterase / cholinesterase / cholinesterase / plasma cholinesterase (che).
[21] abbreviates: group: systemic, systemic / clinical chemistry / calcium / calcium + systemic / clinical chemistry / potassium / potassium + systemic / clinical chemistry / ….
Where [22] appears, read: group: offspring, systemic / in life observation / body weight / offspring (pup) weight.
Setting [23] is: group: offspring, systemic / in life observation / body weight / offspring (pup) weight + developmental / offspring survival late / viability index / ….
[24] abbreviates: group: parental, systemic / in life observation / body weight / body weight.
The mark [25] stands for this setting: group: parental, systemic / in life observation / body weight / body weight + systemic / in life observation / food consumption / food consumption.
Setting [26] is: systemic / hematology / leukocyte (wbc) count differential / leukocyte (wbc) + systemic / hematology / lymphocyte / lymphocyte.
The mark [27] stands for this setting: systemic / hematology / leukocyte (wbc) count differential / leukocyte (wbc) + systemic / hematology / lymphocyte / lymphocyte + systemic / ….
Setting [28] is: group: offspring, developmental / developmental malformation / bone / wavy.
Setting [29] is: group: reproductive, reproductive / reproductive performance / gestational length / gestational length + reproductive / offspring survival early / dead fetuses….
[30] abbreviates: group: offspring, systemic / pathology microscopic / liver / nuclear alteration.
The mark [31] stands for this setting: group: parental, systemic / pathology microscopic / liver / apoptosis.
[32] abbreviates: group: offspring, developmental / developmental landmark / vaginal opening / vaginal opening + systemic / clinical chemistry / luteinizing hormone (lh) / ….
The mark [33] stands for this setting: group: offspring, systemic / in life observation / clinical signs / swimming time trial.
Where [34] appears, read: group: parental, systemic / in life observation / clinical signs / salivation + systemic / organ weight / ovary / absolute + systemic / organ weight / ovary….
The mark [35] stands for this setting: group: reproductive, reproductive / offspring survival early / birth index / live birth index + reproductive / reproductive performance / implantations / ….
The mark [36] stands for this setting: systemic / in life observation / clinical signs / feces, discoloration.
[37] abbreviates: group: developmental, systemic / in life observation / body weight / fetal weight.
Setting [38] is: group: maternal, systemic / in life observation / body weight / body weight + systemic / in life observation / body weight / body weight gain.
[39] abbreviates: group: maternal, systemic / in life observation / body weight / body weight + systemic / in life observation / body weight / body weight gain + systemic / in….
Where [40] appears, read: group: offspring, systemic / in life observation / body weight / offspring (pup) weight gain + systemic / in life observation / body weight / offspring (pup) ….
Where [41] appears, read: group: reproductive, reproductive / offspring survival early / litter viability other / litter viability + reproductive / reproductive performance / ….

As to `CCOC(=O)NC(=S)Nc1ccccc1NC(=S)NC(=O)OCC` [Thiophanate], the NEL is 10 mg/kg/day in data set [1] (setting [15]) and 60 mg/kg/day in data set [2] (systemic / pathology microscopic / ovary / cyst). Also, the NOAEL in data set [1] (setting [15]) came to 10 mg/kg/day; in data set [2] (systemic / pathology microscopic / testes / hypospermatogenesis + systemic / pathology microscopic / liver / fatty change) it was 60 mg/kg/day. Further, the LEL in [1] (setting [16]) amounted to 50 mg/kg/day; in data set [2] (systemic / pathology microscopic / testes / hypospermatogenesis + systemic / pathology microscopic / liver / fatty change + systemic / …), 300 mg/kg/day. Moreover, the figures for the LOAEL in data set [1] (setting [16]) and in [2] (systemic / pathology microscopic / testes / hypospermatogenesis) were 50 mg/kg/day and 300 mg/kg/day, respectively.

As for `CS(=O)(=O)O.Cc1cc(CCN2CCN(c3nsc4ccccc34)CC2)cc2c1NC(=O)CC2(C)C`, in [3] (setting [17]), the LEL came to 10 mg/kg/day, the LOAEL is > 60 mg/kg/day, the NEL was < 10 mg/kg/day and the NOAEL was ≥ 60 mg/kg/day. Further, in data set [3] (setting [18]), the LOAEL is > 60 mg/kg/day and the NOAEL was ≥ 60 mg/kg/day. Besides, in data set [3] (setting [19]), the LEL was 10 mg/kg/day and the NEL was < 10 mg/kg/day.

In the case of `C/C=C/C(=O)Oc1ccccc1[N+](=O)[O-].CCCCCCCC.O=NO` [Dinocap], in data set [4], the LEL is 121 mg/kg/day, the LOAEL stood at 121 mg/kg/day, the NEL was found to be 11.4 mg/kg/day and the NOAEL came out at 11.4 mg/kg/day.

Take `CNC(=O)Oc1cccc2c1OC(C)(C)C2` [Carbofuran]: the LEL in data set [5] (setting [20]) amounted to 0.5 mg/kg/day; in data set [5] (setting [21]) it was 12.5 mg/kg/day; in data set [6] (setting [23]) it was 5 mg/kg/day; in data set [6] (setting [24]), 1 mg/kg/day. For the same compound, the LOAEL in data set [5] (setting [20]) was 0.5 mg/kg/day; in [5] (setting [21]), > 12.5 mg/kg/day; in data set [6] (setting [23]), 5 mg/kg/day; in [6] (setting [25]), 5 mg/kg/day. Further, the NEL was 0.25 mg/kg/day in data set [5] (setting [20]), 0.5 mg/kg/day in [5] (setting [21]), 1 mg/kg/day in [6] (setting [22]) and < 1 mg/kg/day in data set [6] (setting [24]). Further, the NOAEL in data set [5] (setting [20]) was 0.25 mg/kg/day; in [5] (setting [21]) it was ≥ 12.5 mg/kg/day; in [6] (setting [22]), 1 mg/kg/day; in data set [6] (setting [25]), 1 mg/kg/day.

Consider `c1ccccc1` [Benzene], for which the LEL in [7] (setting [26]) stood at 50 mg/kg/day. In [7] (setting [27]), the LOAEL is > 600 mg/kg/day, the NEL was determined as 25 mg/kg/day and the NOAEL is ≥ 600 mg/kg/day. In [8] (setting [26]), the LEL turned out to be 25 mg/kg/day and the NEL is < 25 mg/kg/day. Further, in data set [8] (setting [27]), the LOAEL is > 600 mg/kg/day and the NOAEL was ≥ 600 mg/kg/day.

As to `COc1ccc(C(=O)c2c(C)n(CCN3CCOCC3)c3ccccc23)cc1` [Pravadoline], in data set [9] (setting [28]), the LEL was found to be 300 mg/kg/day, the LOAEL was > 300 mg/kg/day, the NEL was found to be 100 mg/kg/day and the NOAEL is ≥ 300 mg/kg/day. Moreover, the NEL in [9] (group: reproductive, reproductive / reproductive performance / gestational length / gestational length) was 100 mg/kg/day. Also, in data set [9] (setting [29]), the LEL stood at 300 mg/kg/day, the LOAEL was > 300 mg/kg/day and the NOAEL was ≥ 300 mg/kg/day.

As for `CCCCCCCCCc1ccccc1O` [Nonylphenol (mixed)], the LEL in [10] (setting [30]) was 1.25 mg/kg/day; in [10] (setting [31]), 1.25 mg/kg/day; in data set [11] (setting [33]) it was 2 mg/kg/day; in [11] (setting [34]), 50 mg/kg/day; in data set [11] (setting [35]) it was 50 mg/kg/day. Also, the LOAEL was > 1.25 mg/kg/day in [10] (setting [30]); > 1.25 mg/kg/day in data set [10] (setting [31]); > 50 mg/kg/day in [11] (setting [32]); > 50 mg/kg/day in data set [11] (setting [34]); > 50 mg/kg/day in data set [11] (setting [35]). Further, the NEL was < 1.25 mg/kg/day in [10] (setting [30]); < 1.25 mg/kg/day in [10] (setting [31]); < 2 mg/kg/day in [11] (setting [33]); 10 mg/kg/day in [11] (setting [34]); 10 mg/kg/day in data set [11] (setting [35]). Moreover, the NOAEL in data set [10] (setting [30]) is ≥ 1.25 mg/kg/day; in [10] (setting [31]), ≥ 1.25 mg/kg/day; in [11] (setting [32]) it was ≥ 50 mg/kg/day; in data set [11] (setting [34]), ≥ 50 mg/kg/day; in [11] (setting [35]), ≥ 50 mg/kg/day.

`CC1(C)C(=O)N(Cl)C(=O)N1Br` [Bromo-3-chloro-5,5-dimethylhydantoin]: in data set [12] (setting [36]), the LEL turned out to be 120 mg/kg/day and the NEL is < 120 mg/kg/day. Besides, the LOAEL in [12] (systemic / pathology microscopic / adrenal gland / hypertrophy) worked out at 1510 mg/kg/day. The NOAEL in data set [12] (systemic / pathology microscopic / adrenal gland / hypertrophy + systemic / in life observation / clinical signs / feces, discoloration + …) was 342 mg/kg/day.

On to `C1CO1` [Ethylene oxide], for which the LEL is 50 ppm in [13] (setting [37]); 125 ppm in data set [13] (setting [38]); 33 ppm in data set [14] (setting [40]); 33 ppm in data set [14] (setting [24]); 33 ppm in data set [14] (setting [41]). The LOAEL in [13] (setting [37]) was 50 ppm; in [13] (setting [38]), 125 ppm; in [14] (setting [40]), 33 ppm; in [14] (setting [24]), 33 ppm; in data set [14] (setting [41]), 33 ppm. Also, the NEL was < 50 ppm in data set [13] (setting [37]); 50 ppm in data set [13] (setting [39]); 10 ppm in data set [14] (setting [40]); 10 ppm in data set [14] (setting [24]); 10 ppm in data set [14] (setting [41]). The NOAEL in [13] (setting [37]) was < 50 ppm; in data set [13] (setting [39]) it was 50 ppm; in data set [14] (setting [40]), 10 ppm; in [14] (setting [24]) it was 10 ppm; in data set [14] (setting [41]), 10 ppm.

A word on the NOAEL: it is the highest tested level that showed no adverse finding. By LOAEL is commonly meant the lowest dose or exposure tested at which an adverse effect was seen.
